Measured values from publication PMC3825534 (Journal of Cancer Research and Clinical Oncology, 2013).

Legend:
[1] = tested on: colon cancer cell lines RKO and HCT116; experiment: FMCA primary screening at 10 μM; assay type: cell-based, human; conditions: 10 μM drug concentration; both cell lines; hit criterion SI <40 %
Experimental: For primary screening, the colon cancer cell lines HCT 116 and RKO, obtained from American Type Culture Collection (ATCC; Rockville, MD, USA), were cultured in McCoy’s 5a medium supplemented with 10 % heat-inactivated fetal bovine serum, 2 mM L-glutamine, 100 μg/ml streptomycin and 100 U/ml penicillin (all from Sigma-Aldrich St. Louis, MO, USA).
The Pharmakon 1600 library (Microsource Inc, MO, USA) consists of 1,600 annotated compounds previously used in the clinical setting. The library was delivered in […] each containing 80 compounds at a concentration of 10 mM dissolved in DMSO. For the primary screening, aliquots of the DMSO solutions were transferred to 384-well Labcyte source plates (Labcyte Inc, CA, USA) using a Biomek 2000 and stored at room temperature in containers under nitrogen atmosphere. These source plates were subsequently used to deliver 10 μM (final concentration) of each drug to 384-well screening plates using a acoustic dispensing Echo 550 instrument equipped with Labcytes Access robotics (Labcyte).
(§1) The fluorometric microculture cytotoxicity assay (FMCA), described in detail previously (Lindhagen et al. [2008]), was used for measurement of the cytotoxic effect of library compounds and the established standard drugs. The FMCA is based on measurement of fluorescence generated from hydrolysis of fluorescein diacetate (FDA) to fluorescein by cells with intact plasma membranes. Cells were seeded in 384-well plates using the pipetting robot Precision 2000 (Bio-Tek Instruments Inc, Winooski, VT) and cultured over night before drugs were added by the Echo 550 system. […] Results are expressed as survival index (SI), defined as fluorescence of experimental wells in per cent of unexposed control wells with blank values subtracted.
Screening data were exported to Vortex (Dotmatics Inc, UK) software for analysis. […] Structural similarity to other compounds in the library was calculated based on a structural fingerprint consisting of chemical fragments located within the compound as computed by Vortex. […]

panel of 97 kinases = experiment: KINOMEscan binding assay, whole panel; conditions: for kinase binding: 10 µM, panel of 97 kinases; for Interactions Mapped / S-Score(35): 10 μM; for Interactions Mapped: 97 Assays Tested; for S-Score(35): number of non-mutant kinases with POC <35/number of non-mutant kinases tested
Experimental: (§2) The binding affinities of ABZ and MBZ were tested at 10 μM in a high-throughput binding assay (KINOMEscan, Discoverx, CA, USA) against a panel of 97 kinases tagged with DNA (Davis et al. [2011]). Compounds that bind the kinase active site and directly or indirectly prevent kinase binding to an immobilized ligand will reduce the amount of kinase captured on solid support. […] Hits are identified by measuring the amount of kinase captured in test versus control samples by using a quantitative PCR method that detects the associated DNA label (http://www.discoverx.com/tools-resources/publications-references). Results are presented as percent of control (POC). Selectivity score (S-score) is a quantitative measure of compound selectivity. S(35) is calculated as number of non-mutant kinases with POC <35/number of non-mutant kinases tested. Binding constants were determined with the same method using 11-point threefold serial dilutions of the compound. Curves were fitted using a nonlinear least square fit with the Levenberg–Marquardt algorithm (Davis et al. [2011]).

[2] = tested on: reactive oxygen species (ROS) generation; parameters: method as in Locatelli et al. [2004]; conditions: ref Locatelli et al. [2004]; cited from earlier work
[3] = cited from earlier work
ABL1 nonphosphorylated = molecular target: T1, ABL1 nonphosphorylated (Homo sapiens, UniProt P00519); experiment: KINOMEscan binding assay
T1 construct: purchased Discoverx (KINOMEscan service)
Experimental: as §2

ABL1 phosphorylated = molecular target: T2, ABL1 phosphorylated (Homo sapiens, UniProt P00519); experiment: KINOMEscan binding assay
T2 construct: purchased Discoverx (KINOMEscan service)
Experimental: as §2

[4] = molecular target: T3, ABL1(E255K) phosphorylated (Homo sapiens, UniProt P00519, E255K); experiment: KINOMEscan binding assay
T3 construct: purchased Discoverx (KINOMEscan service)
Experimental: as §2

[5] = molecular target: T4, ABL1(T315I) phosphorylated (Homo sapiens, UniProt P00519, T315I); experiment: KINOMEscan binding assay
T4 construct: purchased Discoverx (KINOMEscan service)
Experimental: as §2

BRAF = molecular target: T5, BRAF (Homo sapiens, UniProt P15056); experiment: KINOMEscan binding assay
T5 construct: purchased Discoverx (KINOMEscan service)
T5 sequence (P15056 whole entry): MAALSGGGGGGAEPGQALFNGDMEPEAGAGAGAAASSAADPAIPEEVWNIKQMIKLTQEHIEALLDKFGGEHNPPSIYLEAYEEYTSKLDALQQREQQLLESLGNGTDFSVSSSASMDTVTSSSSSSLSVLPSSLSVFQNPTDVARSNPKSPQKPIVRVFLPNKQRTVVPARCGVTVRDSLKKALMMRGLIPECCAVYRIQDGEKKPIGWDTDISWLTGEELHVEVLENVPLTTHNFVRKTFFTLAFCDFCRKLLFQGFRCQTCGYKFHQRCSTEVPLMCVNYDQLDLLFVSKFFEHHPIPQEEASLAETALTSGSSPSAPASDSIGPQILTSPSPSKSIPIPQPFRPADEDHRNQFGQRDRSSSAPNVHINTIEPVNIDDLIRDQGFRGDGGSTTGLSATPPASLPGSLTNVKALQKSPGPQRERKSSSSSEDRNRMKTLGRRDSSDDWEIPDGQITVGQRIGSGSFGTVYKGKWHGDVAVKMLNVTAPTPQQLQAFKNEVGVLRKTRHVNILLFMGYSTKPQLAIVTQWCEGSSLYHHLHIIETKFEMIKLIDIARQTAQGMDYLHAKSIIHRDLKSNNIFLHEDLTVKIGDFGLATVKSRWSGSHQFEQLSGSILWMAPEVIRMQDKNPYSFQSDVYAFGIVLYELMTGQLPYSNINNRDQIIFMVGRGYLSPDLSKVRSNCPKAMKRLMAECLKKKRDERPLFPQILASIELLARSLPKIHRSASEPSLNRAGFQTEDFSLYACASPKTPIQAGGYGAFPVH
Experimental: as §2

BRAF(V600E) = molecular target: T6, BRAF(V600E) (Homo sapiens, UniProt P15056, V600E); experiment: KINOMEscan binding assay
T6 construct: purchased Discoverx (KINOMEscan service)
T6 sequence (P15056 whole entry V600E): as the sequence (P15056 whole entry) above, with V600E counted along it
Experimental: as §2

JNK3 = molecular target: T7, JNK3 (Homo sapiens, UniProt P53779); experiment: KINOMEscan binding assay
T7 construct: purchased Discoverx (KINOMEscan service)
T7 sequence (P53779 whole entry): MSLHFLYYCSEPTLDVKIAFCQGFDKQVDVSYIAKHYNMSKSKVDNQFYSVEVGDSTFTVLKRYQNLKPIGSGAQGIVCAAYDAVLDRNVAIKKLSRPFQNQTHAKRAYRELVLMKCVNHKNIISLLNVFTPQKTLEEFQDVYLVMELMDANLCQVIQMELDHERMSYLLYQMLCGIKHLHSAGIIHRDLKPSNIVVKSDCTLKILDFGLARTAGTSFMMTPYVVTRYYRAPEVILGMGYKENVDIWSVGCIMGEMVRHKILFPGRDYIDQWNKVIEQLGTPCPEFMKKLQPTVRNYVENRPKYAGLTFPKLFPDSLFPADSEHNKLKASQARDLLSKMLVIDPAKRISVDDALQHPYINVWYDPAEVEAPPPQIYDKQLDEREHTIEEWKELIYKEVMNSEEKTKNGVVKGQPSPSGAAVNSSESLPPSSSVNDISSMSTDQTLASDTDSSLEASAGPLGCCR
Experimental: as §2

KIT = molecular target: T8, KIT (Homo sapiens, UniProt P10721); experiment: KINOMEscan binding assay
T8 construct: purchased Discoverx (KINOMEscan service)
T8 sequence (P10721 26-976): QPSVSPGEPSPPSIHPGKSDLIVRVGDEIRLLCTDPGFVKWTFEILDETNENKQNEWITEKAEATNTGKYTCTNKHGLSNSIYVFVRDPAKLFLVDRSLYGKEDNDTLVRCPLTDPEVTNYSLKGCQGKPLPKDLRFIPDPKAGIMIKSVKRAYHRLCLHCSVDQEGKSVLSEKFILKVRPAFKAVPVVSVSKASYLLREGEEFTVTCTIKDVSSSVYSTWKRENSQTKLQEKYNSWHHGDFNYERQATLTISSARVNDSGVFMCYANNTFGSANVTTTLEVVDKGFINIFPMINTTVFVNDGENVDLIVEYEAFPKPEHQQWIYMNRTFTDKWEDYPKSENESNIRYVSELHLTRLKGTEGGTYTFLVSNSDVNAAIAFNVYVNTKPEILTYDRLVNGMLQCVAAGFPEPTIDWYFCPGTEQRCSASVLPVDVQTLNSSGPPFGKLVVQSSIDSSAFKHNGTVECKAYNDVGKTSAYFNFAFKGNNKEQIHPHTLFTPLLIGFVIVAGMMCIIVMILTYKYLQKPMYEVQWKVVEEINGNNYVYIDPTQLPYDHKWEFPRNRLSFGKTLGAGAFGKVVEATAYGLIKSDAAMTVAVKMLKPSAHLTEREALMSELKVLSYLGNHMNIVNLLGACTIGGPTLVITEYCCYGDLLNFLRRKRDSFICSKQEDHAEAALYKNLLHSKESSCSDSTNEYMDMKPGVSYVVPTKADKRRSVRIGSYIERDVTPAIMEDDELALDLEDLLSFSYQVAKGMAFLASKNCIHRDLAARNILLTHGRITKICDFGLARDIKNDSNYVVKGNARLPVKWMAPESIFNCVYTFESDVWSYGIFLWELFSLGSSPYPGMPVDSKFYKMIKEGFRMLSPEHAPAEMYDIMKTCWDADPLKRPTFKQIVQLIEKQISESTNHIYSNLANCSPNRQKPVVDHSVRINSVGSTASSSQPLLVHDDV
Experimental: as §2

PDGFRA = molecular target: T9, PDGFRA (Homo sapiens, UniProt P16234); experiment: KINOMEscan binding assay
T9 construct: purchased Discoverx (KINOMEscan service)
T9 sequence (P16234 24-1089): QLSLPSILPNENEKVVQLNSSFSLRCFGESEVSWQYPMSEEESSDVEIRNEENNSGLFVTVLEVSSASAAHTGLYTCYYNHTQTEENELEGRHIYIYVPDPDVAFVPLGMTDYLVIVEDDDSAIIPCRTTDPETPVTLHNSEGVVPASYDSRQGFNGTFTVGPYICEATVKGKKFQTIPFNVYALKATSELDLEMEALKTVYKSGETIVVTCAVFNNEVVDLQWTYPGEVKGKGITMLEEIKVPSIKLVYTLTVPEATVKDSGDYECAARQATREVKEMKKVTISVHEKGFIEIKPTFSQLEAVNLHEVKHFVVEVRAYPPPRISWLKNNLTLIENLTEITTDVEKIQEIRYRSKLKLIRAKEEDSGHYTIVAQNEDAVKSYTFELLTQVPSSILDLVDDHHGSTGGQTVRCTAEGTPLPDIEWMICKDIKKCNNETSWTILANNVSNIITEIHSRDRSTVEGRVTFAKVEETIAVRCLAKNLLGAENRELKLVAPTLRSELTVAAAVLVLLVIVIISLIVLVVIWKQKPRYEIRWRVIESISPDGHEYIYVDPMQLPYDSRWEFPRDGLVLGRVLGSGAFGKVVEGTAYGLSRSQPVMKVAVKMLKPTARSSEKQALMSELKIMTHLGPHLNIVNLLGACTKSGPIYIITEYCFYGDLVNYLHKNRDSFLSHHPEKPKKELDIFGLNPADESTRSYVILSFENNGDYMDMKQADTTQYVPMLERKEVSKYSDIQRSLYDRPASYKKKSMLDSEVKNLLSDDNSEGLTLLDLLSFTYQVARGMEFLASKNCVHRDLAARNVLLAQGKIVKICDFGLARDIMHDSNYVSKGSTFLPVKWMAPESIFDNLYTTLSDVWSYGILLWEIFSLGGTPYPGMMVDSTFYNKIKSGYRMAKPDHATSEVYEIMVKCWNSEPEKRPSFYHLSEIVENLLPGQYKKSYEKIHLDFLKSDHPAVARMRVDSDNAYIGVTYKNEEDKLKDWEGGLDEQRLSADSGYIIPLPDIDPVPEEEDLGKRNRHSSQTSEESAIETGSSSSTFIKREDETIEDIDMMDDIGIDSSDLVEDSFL
Experimental: as §2

PDGFRB = molecular target: T10, PDGFRB (Homo sapiens, UniProt P09619); experiment: KINOMEscan binding assay
T10 construct: purchased Discoverx (KINOMEscan service)
T10 sequence (P09619 33-1106): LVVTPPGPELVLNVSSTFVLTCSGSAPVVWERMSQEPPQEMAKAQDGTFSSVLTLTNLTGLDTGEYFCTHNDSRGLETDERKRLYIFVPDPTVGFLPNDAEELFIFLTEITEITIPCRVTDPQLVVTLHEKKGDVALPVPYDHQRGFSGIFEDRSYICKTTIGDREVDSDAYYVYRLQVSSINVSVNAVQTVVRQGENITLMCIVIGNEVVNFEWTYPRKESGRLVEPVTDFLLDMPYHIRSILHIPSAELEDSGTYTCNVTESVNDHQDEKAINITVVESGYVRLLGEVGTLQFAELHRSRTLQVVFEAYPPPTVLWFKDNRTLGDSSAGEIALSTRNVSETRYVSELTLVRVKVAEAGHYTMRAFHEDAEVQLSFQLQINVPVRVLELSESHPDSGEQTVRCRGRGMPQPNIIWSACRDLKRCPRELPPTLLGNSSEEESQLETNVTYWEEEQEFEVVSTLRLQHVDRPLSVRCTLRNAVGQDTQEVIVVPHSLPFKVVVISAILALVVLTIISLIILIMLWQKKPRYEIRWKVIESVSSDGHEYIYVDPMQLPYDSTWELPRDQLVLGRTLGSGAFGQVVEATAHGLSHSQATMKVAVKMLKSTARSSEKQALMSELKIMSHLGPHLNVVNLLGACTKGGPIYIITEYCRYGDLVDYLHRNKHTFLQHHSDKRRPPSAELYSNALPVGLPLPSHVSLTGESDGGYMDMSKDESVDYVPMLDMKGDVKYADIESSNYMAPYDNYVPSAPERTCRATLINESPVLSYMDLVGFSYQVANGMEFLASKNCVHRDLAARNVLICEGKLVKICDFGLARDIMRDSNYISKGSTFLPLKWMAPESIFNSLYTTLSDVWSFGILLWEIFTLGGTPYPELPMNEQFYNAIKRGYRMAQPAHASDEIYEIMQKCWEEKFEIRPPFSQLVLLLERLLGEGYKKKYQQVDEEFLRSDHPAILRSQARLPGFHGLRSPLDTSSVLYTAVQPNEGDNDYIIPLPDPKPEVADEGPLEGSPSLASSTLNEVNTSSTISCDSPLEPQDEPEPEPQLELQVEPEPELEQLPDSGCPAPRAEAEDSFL
Experimental: as §2

[6] = tested on: colon cancer cell lines (HCT 116, RKO, HT29, HT-8 and SW626); experiment: FMCA concentration-response, colon cancer cell lines; assay type: cell-based; conditions: Homo sapiens; all 5 colon cancer cell lines; 72 h FMCA
Experimental: The colon cancer cell lines HT29, HT-8 and SW626 and the normal phenotype non-malignant epithelial MCF 10A, renal RPTEC/TERT1 and hepatocyte NeHepLxHT cell lines were used for validation experiments. These cell lines were all obtained from ATCC and cultured according to the protocols provided by the supplier. All the cell lines were cultured at 37 °C in a humidified atmosphere containing 5 % CO2.
For dose–response studies, Labcyte source plates and the Echo dispenser were used in a similar manner to deliver different concentrations of each drug to destination plates using on board software protocols (Labcyte).
as §1, with “membranes.” for “membranes. Cells were seeded in 384-well plates using the pipetting robot Precision 2000 (Bio-Tek Instruments Inc, Winooski, VT) and cultured over night before drugs were added by the Echo 550 system.”
Concentration–response data of screening hits and standard agents were analyzed using the software GraphPad Prism4 (GraphPad Software Inc., San Diego, CA, USA). […]

NCI 60 cell line panel [7] = experiment: NCI 60 growth inhibitory screen data mining (Cellminer); assay type: cell-based
Experimental: Analysis of data from the National Cancer Institute growth inhibitory screen in 60 cell lines (NCI 60 GI 50 data) was performed with the help by the NCI Cellminer database (http://discover.nci.nih.gov/cellminer/). Z scores are determined for each experiment/cell line pair by the subtraction from its intensity by the experiment mean (across the 60 cell lines) and division by the standard deviation of the experiment (across the 60 cell lines). The z score average was then calculated as the mean across all experiments that passed quality control criteria. The z score will have a mean of zero and a standard deviation of one.

NCI 60 cell line panel [8] = tested on: NCI 60 cell line panel; parameters: method as in NCI Cellminer database; conditions: NCI 60 panel; ref NCI Cellminer database; read-out: average GI 50 over the panel; cited from earlier work
[9] = tested on: refractory metastatic colon cancer; parameters: method as in case report accepted for publication in Acta Oncologica; conditions: 100 mg twice daily, ref case report accepted for publication in Acta Oncologica, cited from earlier work
glioma = tested on: glioma; parameters: method as in Bai et al. [2011]; conditions: two orthotopic mouse models of glioma; ref Bai et al. [2011]; cited from earlier work
[10] = tested on: protein kinases including Bcr–Abl; parameters: method as in Park et al. [2012]; conditions: ref Park et al. [2012]; cited from earlier work
[11] = percent of control at 10 μM, read-out: POC (10 μM)

In the case of `CCCOc1ccc2nc(NC(=O)OC)[nH]c2c1` [Oxibendazole, oxibendazole], the “survival index (SI)” value [1] is reported as “lowest SIs”.

With `CCCSc1ccc2nc(NC(=O)OC)[nH]c2c1` [albendazole] the kinase binding (panel of 97 kinases) was “no kinase binding was observed”, the “Interactions Mapped” value (panel of 97 kinases) was 1 and the “S-Score(35)” value (panel of 97 kinases) was 0. The “survival index (SI)” value [1] was “closely followed”, the ROS generation [2] was “strong reactive oxygen species (ROS) generation” and the dose-limiting toxicity ([3]; dose-escalating phase-I trial, ref Pourgholami et al. [2010]) was “neutropenia”. The “toxicity in clinical study” value ([3]; patients with advanced cancers, ref Morris et al. [2001]) was “neutropenia”.

In the case of `COC(=O)Nc1nc2ccc(Sc3ccccc3)cc2[nH]1` [fenbendazole], the “survival index (SI)” value [1] is reported as “closely followed”.

In the case of `COC(=O)Nc1nc2ccc(C(=O)c3ccccc3)cc2[nH]1` [mebendazole], the Kd (ABL1 nonphosphorylated; average of two determinations) is reported as 550 nM, the remaining binding at 10 µM (ABL1 nonphosphorylated; [11]) is reported as 2.4% and the Kd (ABL1 phosphorylated; average of two determinations) is reported as 130 nM. The remaining binding at 10 µM (ABL1 phosphorylated; [11]) was 0.95%, the Kd ([4]; average of two determinations) was 78 nM and the remaining binding at 10 µM [4, 11] was 0.3%. The Kd ([5]; average of two determinations) was 170 nM, the remaining binding at 10 µM [5, 11] was 4.8% and the Kd (BRAF; average of two determinations) was 190 nM. It also gave a remaining binding at 10 µM (BRAF; [11]) of 13%, a Kd (BRAF(V600E); average of two determinations) of 250 nM and a remaining binding at 10 µM (BRAF(V600E); [11]) of 5.1%. It also gave a Kd (JNK3; average of two determinations) of 420 nM, a remaining binding at 10 µM (JNK3; [11]) of 5.2% and a Kd (KIT; average of two determinations) of 460 nM. For the same molecule, the remaining binding at 10 µM (KIT; [11]) was 2.9%, the Kd (PDGFRA; average of two determinations) was 340 nM and the remaining binding at 10 µM (PDGFRA; [11]) was 15%. The Kd (PDGFRB; average of two determinations) was 560 nM, the remaining binding at 10 µM (PDGFRB; [11]) was 2.3% and the kinase binding (panel of 97 kinases) was “potent inhibitor of several kinases with high affinity”. The “Interactions Mapped” value (panel of 97 kinases) was 20, the “S-Score(35)” value (panel of 97 kinases) was 0.19 and the IC50 [6] was under 5 µM. For the same molecule, the “frequency of sensitive cell lines (positive z scores)” value (“frequency of sensitive cell lines” below) (NCI 60 cell line panel [7]; colon cancer cell lines of NCI 60) was 80%, the “frequency of sensitive cell lines” value (NCI 60 cell line panel [7]; lung cancer subpanel of NCI 60) was 25% and the “frequency of sensitive cell lines” value (NCI 60 cell line panel [7]; renal cancer subpanel of NCI 60) was 28%. The GI50 (NCI 60 cell line panel [8]) was 460 nM, the “computerized tomography evaluation, liver” value ([9]; after six weeks of therapy) was “good partial remission” and the “computerized tomography evaluation, metastases in the lungs and lymph nodes” value ([9]; after six weeks of therapy) was “near complete remission”. The adverse effects [9] was “no subjective adverse effects at all” and the survival (glioma) was “significantly increase survival”.

For `COC(=O)Nc1nc2ccc(C(=O)c3cccs3)cc2[nH]1` [nocodazole], the protein kinase inhibition [10] is given as “inhibit several protein kinases including Bcr–Abl”.
